According to US7943749B2, “Antimicrobial 2-deoxystreptamine compounds” (Isis Pharmaceuticals, Inc., priority 2004, dated 2011):

Key:
Details in all cases: 24 h
E. Coli = test: MIC, E. Coli; format: cell-based;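 further: minimum inhibitory concentration determined in duplicate in 96-well plates, compounds given in 4% aqueous DMSO, with ampicillin and tetracycline as positive controls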
S. Aureus = test: MIC, S. Aureus; format: cell-based
P. aurginosa ATCC(25416) = test: MIC, P. aurginosa ATCC 25416; format: cell-based
P. vulgaris ATCC(8427) = test system: P. vulgaris ATCC(8427)
Description: The MIC assays are carried out in 150 μL volume in duplicate in 96-well clear flat-bottom plates. The bacterial suspension from an overnight culture growth in appropriate medium is added to a solution of test compound in 4% DMSO in water. Final bacterial inoculum is approximately 10^5-10^6 CFU/well. […] Both ampicillin and tetracycline are used as antibiotic-positive controls in each screening assay for S. pyogenes, E. coli imp-, E. coli, S. aureus, E. faecalis, K. pneumoniae and P. vulgaris. Ciprofloxacin is used as an antibiotic positive control in each screening assay for P. aeruginosa.
The following compounds were prepared using methods illustrated in the previous examples. The compounds were also examined in standard bacterial assays against E. Coli, S. Aureus, P. aurginosa, K. pneumoniae, P. vulgaris, and A. baumannii to determine activities. Each of the bacterial cultures that are available from ATCC (www.atcc.org) is identified by its ATCC number. A. baumannii is gentamicin sensitive Acinetobacter baumannii #2 from Walter Reed.

[1] = test system: K. pneumoniae ATCC (10031); test: MIC, K. pneumoniae ATCC 10031; format: cell-based
S. aureus ATCC(13709) = test: MIC, S. aureus ATCC 13709; format: cell-based
[2] = test system: gentamicin sensitive Acinetobacter baumannii #2 from Walter Reed; test: MIC, A. baumannii WReed 2; format: cell-based
P. aurginosa ATCC(29248) = test: MIC, P. aurginosa ATCC 29248; format: cell-based
E. coli ATCC (25922) = test: MIC, E. coli ATCC 25922; format: cell-based

## NCC1OC(OC2C(CO)OC(OC3C(O)C(N)CC(N)C3OC3OC(CO)C(O)C(O)C3N)C2OCCNCc2ccccc2)C(N)C(O)C1O (stereo not shown) [IBIS00560974]
E. Coli
  MIC E. Coli.: 3 to 6 µM
S. Aureus
  MIC S. Aureus: 3 to 5 µM

## NCC1OC(OC2C(CO)OC(OC3C(O)C(N)CC(N)C3OC3OC(CO)C(O)C(O)C3N)C2OCCNCc2ccc(N)nc2)C(N)C(O)C1O (stereo not shown) [IBIS00560975]
E. Coli
  MIC E. Coli.: 3 to 6 µM
S. Aureus
  MIC S. Aureus: 0.3 to 0.6 µM

## NCC1OC(OC2C(CO)OC(OC3C(O)C(N)CC(N)C3OC3OC(CO)C(O)C(O)C3N)C2OCCNc2ccccn2)C(N)C(O)C1O (stereo not shown) [IBIS00561109]
E. Coli
  MIC E. Coli.: 12 to 25 µM
S. Aureus
  MIC S. Aureus: 1 to 2 µM

## NCC1OC(OC2C(CO)OC(OC3C(O)C(N)CC(N)C3OC3OC(CO)C(O)C(O)C3N)C2OCCNCCCc2ccccc2)C(N)C(O)C1O (stereo not shown) [IBIS00561144]
E. Coli
  MIC E. Coli.: 3 to 5 µM
S. Aureus
  MIC S. Aureus: 0.6 to 1.2 µM

## NCC1OC(OC2C(CO)OC(OC3C(O)C(N)CC(N)C3OC3OC(CO)C(O)C(O)C3N)C2OCCNCCCCc2ccccc2)C(N)C(O)C1O (stereo not shown) [IBIS00561145]
E. Coli
  MIC E. Coli.: 3 to 5 µM
S. Aureus
  MIC S. Aureus: 0.6 to 1.2 µM

## COc1cc(CCNCCOC2C(OC3C(O)C(N)CC(N)C3OC3OC(CO)C(O)C(O)C3N)OC(CO)C2OC2OC(CN)C(O)C(O)C2N)cc(OC)c1 (stereo not shown) [IBIS00561192]
E. Coli
  MIC E. Coli.: 10 to 20 µM
S. Aureus
  MIC S. Aureus: 5 to 10 µM

## NCC1OC(OC2C(CO)OC(OC3C(O)C(N)CC(N)C3OC3OC(CO)C(O)C(O)C3N)C2OCCNCCc2ccc(-c3ccccc3)cc2)C(N)C(O)C1O (stereo not shown) [IBIS00561193]
E. Coli
  MIC E. Coli.: 20 to 40 µM
S. Aureus
  MIC S. Aureus: 5 to 10 µM

## NCC1OC(OC2C(CO)OC(OC3C(O)C(N)CC(N)C3OC3OC(CO)C(O)C(O)C3N)C2OCCNC23CC4CC(CC(O)(C4)C2)C3)C(N)C(O)C1O (stereo not shown) [IBIS00561195]
E. Coli
  MIC E. Coli.: 20 to 40 µM
S. Aureus
  MIC S. Aureus: 1 to 3 µM

## NCC1OC(OC2C(CO)OC(OC3C(O)C(N)CC(N)C3OC3OC(CO)C(O)C(O)C3N)C2OCCNC2CCCc3ccccc32)C(N)C(O)C1O (stereo not shown) [IBIS00561950]
E. Coli
  MIC E. Coli.: >10 µM
S. Aureus
  MIC S. Aureus: 1.25 to 2.5 µM

## NCC1OC(OC2C(CO)OC(OC3C(O)C(N)CC(N)C3OC3OC(CO)C(O)C(O)C3N)C2OCCNCCC2CC3CCC2C3)C(N)C(O)C1O (stereo not shown) [IBIS00561951]
E. Coli
  MIC E. Coli.: >10 µM
S. Aureus
  MIC S. Aureus: 5.0 to 10.0 µM

## CC(C)CCCC(C)C1CCC2C3CCC4CC(NCCOC5C(OC6C(O)C(N)CC(N)C6OC6OC(CO)C(O)C(O)C6N)OC(CO)C5OC5OC(CN)C(O)C(O)C5N)CCC4(C)C3CCC12C (stereo not shown) [IBIS00561952]
E. Coli
  MIC E. Coli.: >10 µM
S. Aureus
  MIC S. Aureus: 2.5 to 5.0 µM

## NCC1OC(OC2C(CO)OC(OC3C(O)C(N)CC(N)C3OC3OC(CO)C(O)C(O)C3N)C2OCCNCCc2cc(C(F)(F)F)cc(C(F)(F)F)c2)C(N)C(O)C1O (stereo not shown) [IBIS00561954]
E. Coli
  MIC E. Coli.: >10 µM
S. Aureus
  MIC S. Aureus: 2.5 to 5.0 µM

## NCC1OC(OC2C(CO)OC(OC3C(O)C(N)CC(N)C3OC3OC(CO)C(O)C(O)C3N)C2OCCN(CCCc2ccccc2)CCc2ccccc2)C(N)C(O)C1O (stereo not shown) [IBIS00561969]
P. aurginosa ATCC(25416)
  MIC P. aurginosa ATCC(25416): 10 to 20 µM
P. vulgaris ATCC(8427)
  MIC P. vulgaris ATCC(8427): 10 to 20 µM
[1]
  MIC K. pneumoniae ATCC (10031): 2.5 to 5.0 µM
S. aureus ATCC(13709)
  MIC S. aureus ATCC(13709): 0.6 to 1.2 µM
[2]
  MIC A. baumannii WReed 2: 10 to 20 µM
P. aurginosa ATCC(29248)
  MIC P. aurginosa ATCC(29248): >40 µM
E. coli ATCC (25922)
  MIC E. coli ATCC (25922): 10 to 20 µM
